Experimental data: US11465998B2, “Therapeutic compounds and methods of use thereof” (Regents of the University of Minnesota, priority 2019, dated 2022)

Key:
[1] = system: microglial cell line derived from MAL/MyD88 double knockout Mice (NR-9904); assay: Cytokine/chemokine induction in MAL/MyD88 double-knockout cell line; type: cell-based; conditions: MAL/MyD88 double-knockout murine cell line
Description: (§1) Cytokine induction by 7e and 7f was examined in murine-derived cell lines. […] The absence of activity was not due to extensive plasma protein binding by re-examining under near-serum-free conditions.
(§2) Example 5: High-throughput screens in porcine blood: Curated compound collections were obtained from the Institute for Therapeutics Discovery & Development at the University of Minnesota. Compound transfers from source (80 nL of 10 mM stocks) to assay plates were performed using an Echo 550 acoustic liquid handler (Labcyte, Sunnyvale, Calif.). For most libraries, a target final concentration of 10 μM of compound (in a final volume of 80 μL for the assay described below) was achieved. Compound plates were hermetically sealed and stored at −80° C. until used. Fresh, heparin-anticoagulated porcine blood from healthy animals were obtained under USDA supervision from Midwest Research Swine, LLC (Glencoe, Minn.). 80 μL of hematocrit-enriched porcine blood (low-speed centrifugation, followed by resuspension in DMEM supplemented with 10% fetal bovine serum) was added to compound plates and incubated for 15 h. […] NF-κB translocation was assayed spectrophotometrically using an alkaline phosphatase-specific chromogen (present in HEK-detection medium as supplied by InvivoGen) at 620 nm using a SpectraMax M4 multimode microplate reader (Molecular Devices, Sunnyvale, Calif.). […] Example 7: Human NOD1/2-specific reporter gene assays (NF-κB induction), and TLR-2/-3/-4/-5/-7/-8/-9/STING/ISG counter-screens: The induction of NF-κB was quantified using human TLR-2/-3/-4/-5/-7/-8/-9/NOD-1/NOD-2/STING/ISG-specific, rapid-throughput, liquid handler-assisted reporter gene assays as previously described by us (Wu, W. et al. J. Med. Chem. 2010, 53, 3198-3213; Shukla, N. M. et al. J. Med. Chem. 2010, 53, 4450-4465; Agnihotri, G. et al. J. Med. Chem. 2011, 54, 1490-1510 and Ukani, R. et al. Bioorg. Med. Chem. Lett. 2012, 22, 293-295). […]

[2] = system: macrophage cell line derived from TRIF/TRAM knockout mice (NR-9568); assay: Cytokine/chemokine induction in TRIF/TRAM double-knockout cell line; type: cell-based; conditions: TRIF/TRAM double-knockout murine cell line
Description: as §1, §2

Structure (SMILES)	cytokine and chemokine induction [1]	cytokine and chemokine induction [2]
CCCCCc1nc2ccccc2n1-c1csc(C(N)=O)c1 [Compound 7e, 4-(2-Pentyl-1H-benzo[d]imidazol-1-yl)thiophene-2-carboxamide]	abrogation of responsiveness	abrogation of responsiveness
CCCCCCc1nc2ccccc2n1-c1csc(C(N)=O)c1 [Compound 7f, 4-(2-Hexyl-1H-benzo[d]imidazol-1-yl)thiophene-2-carboxamide]	essentially identical to that of 7e	essentially identical to that of 7e
